The results in this text go back to PMC3006138, “Fexinidazole – A New Oral Nitroimidazole Drug Candidate Entering Clinical Development for the Treatment of Sleeping Sickness” (PLoS Neglected Tropical Diseases, 2010).

Values joined by “and” are separate entries in the source; they are usually repeats but may differ in a detail not shown here. Equal values may be shown once.

In series [1] the test system is T. b. gambiense (STIB 930). Kind of series: In vitro trypanocidal assay (Alamar Blue). The format is cell-based, Trypanosoma brucei gambiense. Particulars: Trypanosoma brucei, 72 h; read-out: IC50. The protocol: Parasites were cultured with or without the test article at a concentration of 3×10^4/mL in Minimal Essential Medium, according to Baltz et al., with the following modifications: 0.2 mM 2-mercaptoethanol, 1 mM Na-pyruvate, 0.5 mM hypoxanthine and 15% heat inactivated horse serum at 37°C in 5% CO2 in 96-well microtitre plates for 72 h. 10 µL of Alamar Blue was added for the final 3 h to determine viability. The assay was assessed by reading the fluorescence in each well at an excitation wavelength of 536 nm and at an emission wavelength of 588 nm. The IC50 values were calculated from the sigmoidal inhibition curves. For cytotoxicity, 4×10^4/mL L-6 rat skeletal myoblast cells were used, and incubations and assessments carried out as above.

For series [2], the system named is dog hepatocytes. Kind of series: Hepatocyte intrinsic clearance and metabolite profile. Particulars: fexinidazole 10 µM. The format is in vitro ADME. The protocol:
(§1) Fexinidazole was incubated with cryopreserved hepatocytes from male CD-1 mice, male Sprague Dawley rats, male beagle dogs, male cynomolgus monkeys, and from pooled white or African-American human donor samples (purchased commercially), at concentrations of 1 µM and 10 µM. […] The incubated samples were analyzed by LC-MS after extraction into acetonitrile.
(§2) A quality control analysis of fexinidazole was performed via 1H-NMR in DMSO and LC- […]
(§3) provided by the Swiss Tropical Institute (Basel, Switzerland).
(§4) Reagents and solvents were of analytical grade and obtained from Sigma-Aldrich (St. Louis, […]
(§5) Cryopreserved hepatocytes from the male CD1 mouse, lot CSI; male Sprague Dawley rat, lot LPL; male beagle dog, lot BWX; male cynomolgus monkey, lot EHH; and pooled human samples, lot MJI, were purchased from In Vitro Technologies Inc (Baltimore, Maryland, […]
(§6) 5.4. In vitro Incubations
(§7) On the day of the experiment a 10 mM stock solution of fexinidazole in DMSO was prepared and, within 3 hours, aliquots of this freshly prepared solution, after suitable dilution, were added to the incubation matrix, to reach fexinidazole final concentrations of 1 and 10 µM. The final percentage of DMSO was 0.01% in the incubation samples for the […]
(§8) On the day of experiment, the cryopreserved hepatocytes were thawed following the detailed instructions provided by the supplier.
(§9) The number of viable cells was determined using a Trypan Blue exclusion method.
(§10) 5.4.1. Intrinsic Clearance Study […]
(§11) µM with mouse, rat, dog, monkey and human hepatocytes (300000 cells/mL for the mouse and 1 million cells/mL for the other species) in a final incubation volume of 0.75 mL […]
(§12) Incubations were performed in duplicate in a 48-well plate under shaking. Sampling was performed using an automatic liquid handling system (Multiprobe II EX, Packard). At 0, 1, 5, 10, 15, 20, 30, 60 and 120 minutes, 50 µL aliquots of the incubates were taken, then 80 µL of ice-cold acetonitrile and 20 µL of 1 µM warfarin in acetonitrile (internal standard) were added, and samples centrifuged at 2000 rpm for 20 min. The supernatant was analyzed by LC-MS/MS. […]
(§13) the medium alone at t = 0 and 120 minutes.
(§14) For the determination of phase I and phase II activity of hepatocytes, 7-ethoxycoumarin (7-EC) 1 µM, and 7-hydroxycoumarin (7-HC) 30 µM were used as positive controls and incubated under the same conditions as fexinidazole. Aliquots of incubates were taken at 0, 10, 20, 30, 60 and 120 minutes and processed as fexinidazole samples.
(§15) 5.4.2. Metabolite Profile Study
(§16) For metabolite profiling, fexinidazole was incubated at a concentration of 10 µM with mouse, rat, dog, monkey and human hepatocytes (300000 cells/mL for the mouse and 1 million cells/mL for the other species) in a final incubation volume of 2 mL Leibovitz L-15 […]
(§17) Aliquots of the incubation samples were taken at t = 0, 30 and 120 minutes; the metabolism was stopped by the addition of an equal volume of cold acetonitrile and the samples centrifuged at 1500 rpm for 20 min. The supernatant was stored at -20°C until analysis. Control incubations were performed with the compound in the medium alone […]
(§18) 5.5. Analysis of Samples for Intrinsic Clearance Determination
(§19) The analysis of the samples for intrinsic clearance determination was performed by an LC-MS/MS method, using the following conditions:
(§20) HPLC Equipment and Conditions
(§21) HPLC system Agilent 1100 binary pump (Agilent, Palo Alto, USA)
(§22) Autosampler CTC Pal (Alfatech, San Jose, USA)
(§23) Analytical column Guard Column SB-C8 4.6 x 12.5 mm, 5 µm (Zorbax)
(§24) Column temperature ambient
(§25) Mobile phase A 10 mM ammonium formate pH 4.0: acetonitrile (95:5, v:v)
(§26) Mobile phase B 10 mM ammonium formate pH 4.0: acetonitrile (5:95, v:v) […]
(§27) Gradient conditions Step Total time (min) flow (µL/min) %A % B […]
(§28) MS Equipment and Conditions
(§29) Mass spectrometer API 4000 Triple Quadrupole (MDS-Sciex, Toronto, […]
(§30) Source Turbo Ion Spray (TIS)
(§31) Ion mode Positive for fexinidazole and 7-EC.
(§32) Negative for 7-HC, 7-HC sulphate and 7-HC glucuronide.

Series [3] has as its system human hepatocytes (pooled). The description is as above. In kind it is in vitro ADME. Particulars: for % of total drug related material: fexinidazole 10 µM. The protocol: as §1, §2, §3, §4, §5, §6, §7, §8, §9, §10, §11, §12, §13, §14, §15, §16, §17, §18, §19, §20, §21, §22, §23, §24, §25, §26, §27, §28, §29, §30, §31, §32
Series [4] deals with hERG (Homo sapiens, UniProt Q12809). In words: hERG tail current, patch clamp in HEK 293 cells. As to conditions: for Residual Current (% of control): 37°C. Background: Block of hERG is tested as a sign of cardiac risk.
hERG, sequence (Q12809 whole entry): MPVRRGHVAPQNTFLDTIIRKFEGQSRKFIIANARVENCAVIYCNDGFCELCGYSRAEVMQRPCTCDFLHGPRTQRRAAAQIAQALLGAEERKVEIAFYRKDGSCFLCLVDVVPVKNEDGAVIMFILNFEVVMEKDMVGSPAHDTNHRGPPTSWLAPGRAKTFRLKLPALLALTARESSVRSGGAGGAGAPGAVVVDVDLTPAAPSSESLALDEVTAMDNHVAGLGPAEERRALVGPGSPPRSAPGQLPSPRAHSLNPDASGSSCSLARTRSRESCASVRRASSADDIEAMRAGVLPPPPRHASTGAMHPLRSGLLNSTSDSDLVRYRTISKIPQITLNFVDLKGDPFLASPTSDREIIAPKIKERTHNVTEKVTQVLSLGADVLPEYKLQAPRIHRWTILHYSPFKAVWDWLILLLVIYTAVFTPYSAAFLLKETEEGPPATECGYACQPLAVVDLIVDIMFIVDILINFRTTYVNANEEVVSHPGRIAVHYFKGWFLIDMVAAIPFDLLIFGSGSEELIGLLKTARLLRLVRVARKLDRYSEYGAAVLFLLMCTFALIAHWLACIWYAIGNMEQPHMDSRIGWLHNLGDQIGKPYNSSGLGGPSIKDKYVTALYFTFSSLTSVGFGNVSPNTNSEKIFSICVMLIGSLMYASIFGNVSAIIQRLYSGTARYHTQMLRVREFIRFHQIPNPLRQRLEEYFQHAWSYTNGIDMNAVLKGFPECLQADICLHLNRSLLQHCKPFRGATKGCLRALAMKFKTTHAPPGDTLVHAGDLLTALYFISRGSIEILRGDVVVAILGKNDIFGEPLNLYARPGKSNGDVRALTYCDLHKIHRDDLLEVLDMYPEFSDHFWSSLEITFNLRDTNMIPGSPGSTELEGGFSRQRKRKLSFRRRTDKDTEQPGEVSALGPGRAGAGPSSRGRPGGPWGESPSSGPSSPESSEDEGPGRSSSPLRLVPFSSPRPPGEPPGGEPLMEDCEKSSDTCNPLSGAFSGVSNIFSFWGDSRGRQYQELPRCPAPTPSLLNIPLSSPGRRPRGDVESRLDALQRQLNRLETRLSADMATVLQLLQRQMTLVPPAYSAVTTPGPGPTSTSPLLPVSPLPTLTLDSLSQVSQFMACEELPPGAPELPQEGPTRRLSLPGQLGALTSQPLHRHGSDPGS
Method: Formulation and stored at 2-4°C when not in use. When in use Tyrode solution was stored at
CaCl2, 1 MgCl2, 5.5 glucose and 5 HEPES. During the patch-clamp experiments the Tyrode
4.2.4. Storage and Formulation of Internal Solution
The internal solution was stored frozen at – 20°C until the day of use. The composition of
the internal solution was (in mM): 110 K+- aspartate, 23 KCl, 3 MgCl2, 1 EGTA, 5 HEPES,
0.4 GTP (Na+ salt), 5 ATP (Na+ salt), 5 creatine phosphate, 0.4 CaCl2 (pH 7.3 with KOH).
4.3.1. Source and Maintenance of hERG Transfected Cells
HEK 293 cells stably transfected with hERG cDNA, supplied by bSys GmbH Switzerland,
continuously maintained and passaged in sterile culture flasks containing a mixture of
Dulbecco’s modified Eagle’s medium and nutrient mixture F-12 supplemented with 10%
foetal bovine serum, 0.9% Penicillin/Streptomycin solution, Hygromycin B and Blasticidin.
HEK 293 cells were passaged at a confluence of about 80%. For electrophysiology studies,
the cells were seeded in Petri dishes (35x10 mm), with culture medium containing
tetracycline to activate channel expression, at a density that enables isolated cells to be
selected for patch-clamping. The dishes were stored in a humidified, gassed (5% CO2)
Petri dishes containing the cells to be used for electrophysiological studies were mounted on
the stage of an inverted microscope and were superfused with Tyrode solution. Membrane
currents were recorded (Axopatch 200B, Axon Instruments) in the whole cell configuration
by using suction pipettes (Harvard apparatus, 1.5 mm o.d. x 0.86 mm i.d.) with tip resistance
in the range of 2.5-3.5 MΩ. Gigaohm seals were formed between the patch electrodes and
individual cells. If the quality of the seal was judged to be poor, the electrode was replaced
and the process repeated with a different cell. Once a stable patch was achieved, recording
was commenced in voltage-clamp mode, with the cell initially clamped at –80 mV. Series
resistance and capacitance were compensated to about 70% of their initial value. Cells were
perfused through a microperfusion system allowing for solution changes to occur within
approximately one second. Computer software (pClamp version 8.0; Axon Instruments) was
used to generate voltage clamp protocols, acquire data and analyze current traces. The data
were stored on a computer hard disk for later analysis. Experiments were performed at a
temperature in the recording chamber of 37 ± 1°C, which was maintained with a temperature
Cells stably expressing hERG were held at –80 mV. Onset and steady state block of the
hERG channel current (IKr) due to the test items were monitored using a pulse pattern with
fixed amplitudes (first depolarization: -50 mV for 500 ms; second depolarization: +20 mV
for 2 seconds; hyperpolarization: -50 mV for 7 seconds). This pulse pattern was repeated
every 15 seconds, and current amplitude at the onset of the second step to –50 mV (“peak
tail current”) was monitored until a steady state was obtained. Recordings were acquired at
the sampling interval of 2 kHz and low-pass filtered at 1 kHz. The steady state peak tail
current was monitored and recorded in vehicle solution and then the test item was applied to
the bath solution. At the end the reference item E4031 was applied to block 100% of the
current for determination of the current “leak” response to the stimulation protocol. The
current amplitude was continually monitored through the onset of the voltage step to –50
mV until a new steady state level of current was achieved. Each cell was exposed to a single
test substance concentration.
4.5. Statistical Analysis
For each cell the effect of the test items was ascertained by calculating the residual current as
percentage of control (% control). All data were corrected for “leak” current by subtracting
Each value represents the average current
recorded from 3 sequential voltage pulses. Data from individual cells was collected and the

For orientation: IC50 means the concentration that inhibits the measured activity by half. Consider `Cn1c([N+](=O)[O-])cnc1COc1ccc(S(C)(=O)=O)cc1` [Fexinidazole sulfone], for which the IC50 in series [1] is 0.16 µg/mL to 0.39 µg/mL and 480 nM to 1.25 µM. The “% of total drug related material” value in series [2] (30 min) is on record as 4%; in series [2] (120 min) it was 15%; in series [3] (30 min) it was 2%; in series [3] (120 min), 4%. Moreover, the “Residual Current (% of control)” value was found to be 96.16±8.15% in series [4] (1 µM), 90.76±3.84% in series [4] (5 µM) and 67.41±2.24% in series [4] (30 µM). Further, the “decrease on hERG peak tail current” value in series [4] (30 µM, 9.34 µg/mL) stood at 33%. Also, the “effect on hERG peak tail current” value in series [4] (1 or 5 µM) was “no effect”.
For `Cn1c([N+](=O)[O-])cnc1COc1ccc([S+](C)[O-])cc1` (stereo not shown) [Fexinidazole sulfoxide], the IC50 in series [1] was 0.18 µg/mL to 0.36 µg/mL and 610 nM to 1.22 µM. The “% of total drug related material” value in series [2] (30 min) came out at 94%; in series [2] (120 min) it was 84%; in series [2] (t=0), 50%; in series [3] (30 min) it was 96%; in series [3] (120 min), 95%; in series [3] (t=0) it was 17%. Moreover, the figures for the “Residual Current (% of control)” value in series [4] (1 µM), in series [4] (5 µM) and in series [4] (30 µM) were 87.06±0.92%, 101.39±8.64% and 98.04±1.52%, respectively. The “effect on hERG peak tail current” value in series [4] (1, 5 and 30 µM) was “judged not to affect hERG peak tail current”.
On to `CSc1ccc(OCc2ncc([N+](=O)[O-])n2C)cc1` [Fexinidazole, 1-methyl-2-((p-(methylthio)phenoxy)methyl)-5-nitroimidazole], for which the IC50 in series [1] is 0.16 µg/mL to 0.36 µg/mL and 580 nM to 1.29 µM. The “% of total drug related material” value in series [2] (t=0) is on record as 50%; in series [3] (30 min) it was 2%; in series [3] (120 min), < 1%; in series [3] (t=0), 83%. Also, the t1/2 in series [3] (1 µM) is 13.4 min. The “Residual Current (% of control)” value amounted to 100.12±4.29% in series [4] (1 µM), 94.86±1.06% in series [4] (5 µM) and 88.97±8.21% in series [4] (30 µM). For the same compound, the “effect on hERG peak tail current” value in series [4] (1, 5 and 30 µM) was “judged not to affect hERG peak tail current”.
